Experimental findings from patent US20240315241A1, “ANTIMICROBIAL POLYMERIC COMPOSITION” (priority 2021, published 2024) are described below.

Experiment [1] has as its system blend of Pseudomonas aeruginosa ATCC 15442, Staphylococcus aureus ATCC 6538, Escherichia coli ATCC 10536, Enterococcus hirae ATCC 10541 and Candida albicans …. The experiment is described as follows: Antimicrobial activity, zone of inhibition on TSA Petri dishes (Example 4). It is filed as cell-based. The following applies: aqueous solution pH 8.3, [Ag+]=0.1%, 100 μl, 37° C. for 24 h. As for the experimental part:
The antimicrobial activity of an aqueous solution at pH 8.3 of Na^+3[Ag^+(MPA^2−)2]^3− with an ionic concentration of [Ag+]=0.1% was tested against the following blend of microorganism strains (bought from Diagnostic International Distribution S.p.A): Pseudomonas aeruginosa ATCC 15442, Staphylococcus aureus ATCC 6538, Escherichia coli ATCC 10536, Enterococcus hirae ATCC 10541 e Candida albicans ATCC 10231. For each microbial strain, the concentration of the blend was in the range 1.5×10^12−5×10^12 unity forming colonies (UFC). A volume of 100 μl of the blend was seeded in Petri dishes containing a non-selective culture medium TSA (Tryptone Soya Agar) and a sample of 100 μl of said aqueous solution of Na^+3[Ag^+(MPA^2−)2]^3− was put in the centre of each Petri dish in contact with the microbial blend. The Petri dishes were then incubated at 37° C. for 24 h.

For experiment [2], the system named is SARS-Cov-2. The experiment is described as follows: Antiviral effectiveness towards SARS-Cov-2: virus incubated on treated surface, replication in VeroE6 cells by qRT-PCR. The following applies: for ΔCt / Logarithmic difference: Ag+ 0.108% aqueous solution on surface; for ΔCt: vs untreated; for Logarithmic difference: vs untreated control. The format is cell-based. (In general: In qPCR the cycle at which signal appears reflects the starting amount.)

The test system of experiment [3] is SARS-Cov-2. The experiment is described as follows: Cytopathic effect in VeroE6 cells infected with treated SARS-Cov-2, optical microscopy.

Take `Cc1nc([S-])sc1CC(=O)[O-].Cc1nc([S-])sc1CC(=O)[O-].[Ag+].[Na+].[Na+].[Na+]` [Aqueous solution containing Ag, Na^+3[Ag^+(MPA^2−)2]^3−]: in experiment [1], the “zone of inhibition (of the microbial growth)” value is “circa 3 cm”. Besides, the ΔCt in the experiment with SARS-Cov-2 [2] (virus 5 minutes, 24 hpi) came to 3.04; in the experiment on SARS-Cov-2 [2] (virus 5 minutes, 48 hpi), 1.91; in the experiment on SARS-Cov-2 [2] (virus 5 minutes, 72 hpi) it was 0.61. The Logarithmic difference with SARS-Cov-2 [2] (virus 5 minutes, 24 hpi) is −0.91; in the experiment with SARS-Cov-2 [2] (virus 5 minutes, 48 hpi), −0.57; with SARS-Cov-2 [2] (virus 5 minutes, 72 hpi) it was −0.18. Besides, the “reduction of the viral charge” value with SARS-Cov-2 [2] (Ag+ 0.108%, at a time more distant from the infection) is reported as “not significant”; with SARS-Cov-2 [2] (diluted aqueous solution, Ag+ 0.002%, virus 5 minutes, 24 hours post-infection), 0.82 logarithms. Also, the “decrease of the viral charge” value in the experiment on SARS-Cov-2 [2] (Ag+ 0.108%, virus 5 minutes, 48 pci) is reported as 0.57 logarithms; in the experiment on SARS-Cov-2 [2] (Ag+ 0.108%, virus 5 minutes, 24 h post-infection), 0.91 logarithms. For the same compound, the cytopathic effect entry in the experiment on SARS-Cov-2 [3] (Ag+ 0.002%, 72 hours post-infection) is “small decrease of the cytopathic effect”. Further, the “cytopathic effect compared to cells infected with untreated virus” value in the experiment on SARS-Cov-2 [3] (Ag+ 0.108%, 48 hours post-infection) is recorded as “lower cytopathic effect”.
